The test has as its system Carrageenan Rat Paw Edema. Description: Carrageenan Rat Paw Edema Test. The format is in vivo, rat (male Sprague-Dawley). The following applies: 100 mg/kg P.O.; carrageenan 1 h after dosing, paw volume 4 h after carrageenan; all values statistically significant from control at P ≤ 0.05. The procedure:
Carrageenan Rat Paw Edema Test
Male Sprague-Dawley rats (Charles River Laboratories) are weighed and food fasted overnight. The animals are then divided into four to six groups of six animals each according to body weights (average about 145 g) so that each group has about the same average body weight (within 10 g).
The following morning animals are dosed with the test compound and then placed in individual cages. For oral dosing, the drug is suspended in 0.5% methyl cellulose with 2% Tween 80, and delivered via stomach tube in a 5 ml volume.
Paw volumes (0 time) are determined on both hind paws with a mercury displacement device equipped with a transducer and digitizer. One hour after dosing the test compound, the animals are placed in a plastic restrainer and 50 ul of a 1% (w/w) carrageenan solution in 0.9% saline is injected into the ventral surface of the left rear paw. Four hours after the carrageenan injection, the paw volumes are again determined.
The results are expressed as percent inhibition of the mean paw volume of the test group relative to the control group. Statistical differences are determined by one way analysis of variance.
In general terms: Carrageenan injected into the paw causes an acute inflammation.
As to `C#CCCCC(=O)c1cc(C)c(O)c(C(C)(C)C)c1` [Example 1, 2-methyl-4-(5'-hexynoyl)-6-t-butylphenol], the “Percent Inhibition at 100 mg/kg dosed P.O (mean paw volume of the test group relative to the control group)” value came to 75.4%.

In the case of `C#CCCCC(=O)c1cc(C(C)(C)C)c(O)c(C(C)(C)CO)c1` [Example 2, 2-(2-hydroxy-1,1-dimethyl-ethyl)-4-(5'-hexynoyl)-6-t-butylphenol], the “Percent Inhibition at 100 mg/kg dosed P.O (mean paw volume of the test group relative to the control group)” value stood at 48.4%.

Take `C#CCCCC(=O)c1cc(CC=C)c(O)c(C(C)(C)C)c1` [Example 3, 1-Allyl-4-(5'-hexynoyl)-6-t-butylphenol]: the “Percent Inhibition at 100 mg/kg dosed P.O (mean paw volume of the test group relative to the control group)” value came out at 65.8%.

With `C#CCCCC(=O)c1cc(CCC)c(O)c(C(C)(C)C)c1` [Example 4, 2-n-propyl-4-(5'-hexynoyl)-6-t-butylphenol], the “Percent Inhibition at 100 mg/kg dosed P.O (mean paw volume of the test group relative to the control group)” value was determined as 53.2%.

As to `C#CCCCC(=O)c1cc(C(C)C=C)c(O)c(C(C)(C)C)c1` (stereo not drawn) [Example 5, 2-s-(3-butenyl)-4-(5'-hexynoyl)-6-t-butylphenol], the “Percent Inhibition at 100 mg/kg dosed P.O (mean paw volume of the test group relative to the control group)” value came to 90.8%.

In the case of `C#CCCCC(=O)c1cc(C(C)CC)c(O)c(C(C)(C)C)c1` (stereo not drawn) [Example 6, 2-s-butyl-4-(5'-hexynoyl)-6-t-butylphenol], the “Percent Inhibition at 100 mg/kg dosed P.O (mean paw volume of the test group relative to the control group)” value amounted to 51.5%.

Values taken from patent publication US4847303A, “Tert-butylphenyl compounds useful as anti-inflammatory agents” (The Procter & Gamble Company, priority 1987, dated 1989).
